Reference: ChEMBL document CHEMBL1201862, “PubChem BioAssay data set” (2004)
Structures can show the parent of a compound that is named as a salt. Activity calls are given as the source filed them.

What was measured:
[1] = biological target: Melanin-concentrating hormone receptor 1 (Homo sapiens, UniProt Q99705); test: Late-stage fluorescence-based counterscreen for antagonists of the G-protein coupled receptor 7 (GPR7): cell-based dose response assay to identify antagonists of the melanin-concentrating hormone receptor 1 (MCHR1). [Related pubchem assays (depositor defined):AID1861, AID1880, AID1952, AID2148, AID2251, AID2257, AID485339]; assay type: functional;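 note: stimulated with 30 nM MCH peptide agonist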
[2] = biological target: Neuropeptides B/W receptor type 1 (Homo sapiens, UniProt P48145); test: human NPBW1 receptor blockade, IC50 – cell-based, fluorescence, dose response, late-stage follow-up (AID 463251); assay type: functional
[3] = NIH-3T3 fibroblast cytotoxicity, dose response, cytotoxicity control, cell-based, fluorescence, Alamar Blue, secondary assay (AID 2327); assay type: functional;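 note: NIH-3T3 mouse fibroblasts cultured with fluconazole at 8 µg/mL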
[4] = fluconazole-exposed Candida albicans growth modulators – fluorescence, retest, confirmation (AID 2467); assay type: functional, cell-based
[5] = biological target: ATP-dependent molecular chaperone HSP82 (Candida albicans (strain WO-1) (Yeast), UniProt C4YTQ8); test: steroid-induced GRE reporter decrease in yeast – S. cerevisiae, luminescence, Hsp90 inhibitor project, dose response (AID 2400); assay type: functional, cell-based;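 note: beta-galactosidase luminescence from glucocorticoid response element reporter as proxy for Hsp90 function; inhibitor potency where signal loss means Hsp90 inhibition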
Saccharomyces cerevisiae = test: S. cerevisiae Caspase-1/ASC signal blockers IC50, NALP1 inhibitor project selectivity test (AID 488863); assay type: functional, organism-based
[6] = biological target: NACHT, LRR and PYD domains-containing protein 1 (Homo sapiens, UniProt Q9C000); test: NALP1 inhibitors in yeast, dose response, luminescent (AID 488860); assay type: functional
[7] = biological target: T1, Serine/threonine-protein phosphatase (Candida dubliniensis (strain CD36 / CBS 7987 / NCPF 3949 / NRRLY-17841) (Yeast), UniProt B9W6M3); test: blockers of CaCl2-induced CDRE-lacZ signaling – S. cerevisiae, luminescence, secondary, dose response (AID 2388); assay type: functional, cell-based;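 note: yeast reporter cells carrying a calcineurin-responsive lacZ construct stimulated with calcium chloride; luminescent beta-galactosidase reporter signal in whole cells rather than isolated phosphatase activity; potency for inhibition where a drop in reporter signal means calcineurin blockade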
T1 sequence (B9W6M3 whole entry): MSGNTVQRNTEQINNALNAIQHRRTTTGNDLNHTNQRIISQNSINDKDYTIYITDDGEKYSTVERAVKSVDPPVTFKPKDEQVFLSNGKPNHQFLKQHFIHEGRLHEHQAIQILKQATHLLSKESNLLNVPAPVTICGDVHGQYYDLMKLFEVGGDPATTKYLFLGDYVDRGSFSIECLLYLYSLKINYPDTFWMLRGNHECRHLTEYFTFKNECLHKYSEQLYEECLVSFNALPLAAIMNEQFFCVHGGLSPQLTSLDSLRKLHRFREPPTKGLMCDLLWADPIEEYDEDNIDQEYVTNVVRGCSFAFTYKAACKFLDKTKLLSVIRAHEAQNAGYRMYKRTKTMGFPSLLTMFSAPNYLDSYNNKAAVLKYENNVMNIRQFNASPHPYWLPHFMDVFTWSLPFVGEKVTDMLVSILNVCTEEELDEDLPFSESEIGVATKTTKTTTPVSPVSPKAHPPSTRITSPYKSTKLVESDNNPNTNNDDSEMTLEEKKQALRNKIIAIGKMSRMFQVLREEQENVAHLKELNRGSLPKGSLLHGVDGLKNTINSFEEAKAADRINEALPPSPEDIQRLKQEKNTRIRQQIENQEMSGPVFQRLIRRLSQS

14-3-3 protein gamma = 14-3-3 protein gamma (Homo sapiens, UniProt P61981); test: modulators of 14-3-3 gamma client binding – dose response (AID 711); assay type: functional
Insulin-degrading enzyme [8] = biological target: T2, Insulin-degrading enzyme (Homo sapiens, UniProt P14735); test: cellular IDE activation of Abeta substrate cleavage – fluorescence polarization, HEK cells, dose response (AID 588439); assay type: functional, cell-based
T2 sequence (P14735 whole entry): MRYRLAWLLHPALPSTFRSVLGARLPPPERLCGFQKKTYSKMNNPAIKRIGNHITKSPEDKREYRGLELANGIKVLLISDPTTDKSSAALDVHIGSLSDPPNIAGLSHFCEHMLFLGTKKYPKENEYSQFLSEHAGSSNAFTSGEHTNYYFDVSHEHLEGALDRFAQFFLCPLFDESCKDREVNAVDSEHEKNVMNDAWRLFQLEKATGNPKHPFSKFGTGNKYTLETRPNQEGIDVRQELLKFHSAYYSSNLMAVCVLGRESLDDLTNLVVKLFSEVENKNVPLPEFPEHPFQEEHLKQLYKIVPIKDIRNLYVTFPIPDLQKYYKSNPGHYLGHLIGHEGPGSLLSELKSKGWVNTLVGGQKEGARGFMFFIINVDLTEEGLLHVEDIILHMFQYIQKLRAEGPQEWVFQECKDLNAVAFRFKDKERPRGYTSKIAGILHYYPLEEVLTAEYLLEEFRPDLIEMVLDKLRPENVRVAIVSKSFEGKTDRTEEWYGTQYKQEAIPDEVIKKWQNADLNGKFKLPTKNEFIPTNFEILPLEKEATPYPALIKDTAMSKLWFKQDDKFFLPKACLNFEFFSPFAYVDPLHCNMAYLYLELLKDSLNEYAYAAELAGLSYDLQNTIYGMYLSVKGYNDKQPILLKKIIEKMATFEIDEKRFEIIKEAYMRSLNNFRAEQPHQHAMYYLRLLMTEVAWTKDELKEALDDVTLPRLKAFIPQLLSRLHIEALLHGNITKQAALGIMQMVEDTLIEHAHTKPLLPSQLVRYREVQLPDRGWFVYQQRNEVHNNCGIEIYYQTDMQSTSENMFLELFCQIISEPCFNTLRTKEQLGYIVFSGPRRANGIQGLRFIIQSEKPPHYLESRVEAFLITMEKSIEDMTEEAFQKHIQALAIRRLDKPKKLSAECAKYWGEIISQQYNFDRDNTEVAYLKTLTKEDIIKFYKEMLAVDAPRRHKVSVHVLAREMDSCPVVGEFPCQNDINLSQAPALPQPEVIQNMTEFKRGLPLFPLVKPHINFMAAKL

Protein S100-A4 = Protein S100-A4 (Homo sapiens, UniProt P26447); test: human S100A4 peptide interaction inhibition curves – biochemical, fluorescence polarization, cherry-picked hits, dose response (AID 687001); assay type: functional
ORF 73 = ORF 73 (Human herpesvirus 8, UniProt O40947); test: KSHV LANA DNA-binding disruption – biochemical, fluorescence polarization, cherry-picked samples, dose response (AID 504725); design: species or system Human gammaherpesvirus 8;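 note: fluorescence polarization of a labeled DNA duplex reporting LANA DNA binding; potency is for inhibitors that block LANA binding to the DNA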
Paired box protein Pax-8 = Paired box protein Pax-8 (Homo sapiens, UniProt Q06710); test: PAX8 transcriptional activity inhibition in RMG-I – RMG-I cells, luciferase, cherry-pick, dose response (AID 687027); assay type: functional, cell-based;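 note: luciferase reporter driven by Pax8 target thyroperoxidase promoter measured by SteadyGlo luminescence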
Insulin-degrading enzyme [9] = biological target: T2, Insulin-degrading enzyme; test: recombinant IDE activation, cell-free – biochemical, fluorescence polarization, counter-screen for IDE activator project, dose response (AID 588681)
fMet-Leu-Phe receptor = biological target: T3, fMet-Leu-Phe receptor (Homo sapiens, UniProt P21462); test: formyl peptide receptor binders – dose response (AID 519); assay type: functional
T3 sequence (P21462 whole entry): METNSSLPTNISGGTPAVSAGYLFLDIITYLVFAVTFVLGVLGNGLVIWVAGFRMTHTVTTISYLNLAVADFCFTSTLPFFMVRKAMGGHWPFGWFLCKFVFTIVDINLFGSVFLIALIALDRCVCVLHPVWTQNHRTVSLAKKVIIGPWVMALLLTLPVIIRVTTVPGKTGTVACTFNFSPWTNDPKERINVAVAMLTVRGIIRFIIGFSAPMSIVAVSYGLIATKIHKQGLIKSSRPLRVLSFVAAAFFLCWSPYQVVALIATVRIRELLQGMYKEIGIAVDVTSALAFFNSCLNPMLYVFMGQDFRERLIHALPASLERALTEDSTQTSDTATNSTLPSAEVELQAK

HEK293 [10] = test: optical interference in Abeta FP readout, dose response, artefact control for IDE activator project, biochemical, fluorescence polarization (AID 588442); assay type: functional, cell-based; settings: Homo sapiens
HeLa = test: viability loss in HeLa cells – cell-based, 24 h, cherry-picked samples, cytotoxicity control, dose response (AID 504726); assay type: functional; settings: Homo sapiens;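 note: potency for cytotoxicity as loss of luminescence signal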
[11] = biological target: Aryl hydrocarbon receptor (Homo sapiens, UniProt P35869); settings: Potency;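 note: confirmatory quantitative high-throughput screen measuring activation of the AhR signaling pathway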
HEK293 [12] = test: membrane integrity loss in HEK cells – cell-based, fluorescence, cytotoxicity control for IDE activator project, dose response (AID 588440); assay type: functional; settings: Homo sapiens;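 note: cytotoxicity by LDH release measuring loss of membrane integrity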
Nonstructural protein 1 = Nonstructural protein 1 (Influenza A virus, UniProt Q194T2); assay type: functional, Influenza A virus (A/California/07/2009(H1N1))
[13] = system: Streptococcus sp. 'group A'; test: Streptococcus pyogenes SK(-)GAS viability under kanamycin – luminescence, BacTiterGlo, confirmation, counter-screen for streptokinase expression inhibitor project, dose response (AID 1900); assay type: functional, organism-based
Streptococcus = test: GAS UMAA2166 growth inhibition – luminescence, BacTiterGlo, counter-screen for streptokinase expression inhibitor project, dose response (AID 1915); assay type: functional, organism-based;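 note: potency for reduction of bacterial viability or growth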
[14] = biological target: T4, Alkaline phosphatase, tissue-nonspecific isozyme (Homo sapiens, UniProt P05186); test: activation of tissue-nonspecific alkaline phosphatase – biochemical, TNAP isozyme, human IAP uHTS hits, selectivity assay for human IAP activator project, dose response (AID 488886); assay type: functional;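 note: potency of compounds raising TNAP activity as a selectivity check on IAP activators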
T4 sequence (P05186 whole entry): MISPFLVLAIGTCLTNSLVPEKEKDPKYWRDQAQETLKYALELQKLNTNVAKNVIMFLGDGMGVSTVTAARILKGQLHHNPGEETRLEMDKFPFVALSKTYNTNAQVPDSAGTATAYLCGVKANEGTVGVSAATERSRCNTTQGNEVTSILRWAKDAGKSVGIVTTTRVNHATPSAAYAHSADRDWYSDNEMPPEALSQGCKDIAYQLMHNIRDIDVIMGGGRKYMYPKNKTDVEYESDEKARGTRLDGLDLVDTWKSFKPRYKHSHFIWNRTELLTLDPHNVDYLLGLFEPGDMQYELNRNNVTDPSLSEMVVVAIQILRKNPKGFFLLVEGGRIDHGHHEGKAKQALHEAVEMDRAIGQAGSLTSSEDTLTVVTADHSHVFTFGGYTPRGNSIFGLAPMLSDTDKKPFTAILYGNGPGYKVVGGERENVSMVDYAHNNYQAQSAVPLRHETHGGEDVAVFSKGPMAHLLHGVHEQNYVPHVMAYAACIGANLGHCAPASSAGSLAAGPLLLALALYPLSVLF

[15] = biological target: Intestinal-type alkaline phosphatase (Mus musculus, UniProt P24822); test: PubChem AID 488875; assay type: functional
[16] = biological target: T5, Intestinal-type alkaline phosphatase (Homo sapiens, UniProt P09923); test: human intestinal alkaline phosphatase activators, dose response, biochemical, luminescence, uHTS hits (AID 463120); assay type: functional
[17] = biological target: NACHT, LRR and PYD domains-containing protein 3 (Homo sapiens, UniProt Q96P20); test: NALP3 inhibitors in yeast, dose response, luminescent (AID 488799); assay type: functional
[18] = biological target: T5, Intestinal-type alkaline phosphatase; test: activation of human intestinal alkaline phosphatase – biochemical, luminescent, uHTS hits, set 2, dose response (AID 488817); assay type: functional;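 note: potency of activators that raise enzyme activity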

Sequence of Nonstructural protein 1 (Q194T2 whole entry): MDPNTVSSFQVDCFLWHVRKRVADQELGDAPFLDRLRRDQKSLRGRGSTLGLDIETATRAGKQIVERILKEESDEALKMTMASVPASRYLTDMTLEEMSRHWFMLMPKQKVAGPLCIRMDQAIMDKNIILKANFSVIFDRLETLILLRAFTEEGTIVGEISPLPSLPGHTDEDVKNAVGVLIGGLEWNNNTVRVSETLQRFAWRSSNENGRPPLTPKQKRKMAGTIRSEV
T5 sequence (P09923 whole entry, the tested form may be a part): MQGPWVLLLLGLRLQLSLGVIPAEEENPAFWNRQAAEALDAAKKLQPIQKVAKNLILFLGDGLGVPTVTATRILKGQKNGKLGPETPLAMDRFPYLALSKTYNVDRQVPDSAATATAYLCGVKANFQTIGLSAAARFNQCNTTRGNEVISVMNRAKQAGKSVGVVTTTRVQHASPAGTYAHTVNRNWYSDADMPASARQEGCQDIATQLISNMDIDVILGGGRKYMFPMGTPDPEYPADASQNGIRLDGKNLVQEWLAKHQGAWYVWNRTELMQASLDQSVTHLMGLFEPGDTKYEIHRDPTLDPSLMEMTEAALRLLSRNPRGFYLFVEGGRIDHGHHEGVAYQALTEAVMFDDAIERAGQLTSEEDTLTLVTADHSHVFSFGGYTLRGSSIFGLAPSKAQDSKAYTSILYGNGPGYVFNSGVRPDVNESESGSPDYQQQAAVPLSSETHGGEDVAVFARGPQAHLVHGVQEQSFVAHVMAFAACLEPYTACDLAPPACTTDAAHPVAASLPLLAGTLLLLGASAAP
Sequence of 14-3-3 protein gamma (P61981 whole entry): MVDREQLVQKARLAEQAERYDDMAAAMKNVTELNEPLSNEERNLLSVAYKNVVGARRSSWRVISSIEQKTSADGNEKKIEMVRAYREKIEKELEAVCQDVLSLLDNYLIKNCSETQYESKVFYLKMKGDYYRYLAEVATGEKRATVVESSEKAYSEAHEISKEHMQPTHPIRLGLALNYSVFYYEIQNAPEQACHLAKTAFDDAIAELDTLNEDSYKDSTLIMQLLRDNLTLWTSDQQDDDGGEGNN
Sequence of NACHT, LRR and PYD domains-containing protein 1 (Q9C000 1-1212 limits assumed): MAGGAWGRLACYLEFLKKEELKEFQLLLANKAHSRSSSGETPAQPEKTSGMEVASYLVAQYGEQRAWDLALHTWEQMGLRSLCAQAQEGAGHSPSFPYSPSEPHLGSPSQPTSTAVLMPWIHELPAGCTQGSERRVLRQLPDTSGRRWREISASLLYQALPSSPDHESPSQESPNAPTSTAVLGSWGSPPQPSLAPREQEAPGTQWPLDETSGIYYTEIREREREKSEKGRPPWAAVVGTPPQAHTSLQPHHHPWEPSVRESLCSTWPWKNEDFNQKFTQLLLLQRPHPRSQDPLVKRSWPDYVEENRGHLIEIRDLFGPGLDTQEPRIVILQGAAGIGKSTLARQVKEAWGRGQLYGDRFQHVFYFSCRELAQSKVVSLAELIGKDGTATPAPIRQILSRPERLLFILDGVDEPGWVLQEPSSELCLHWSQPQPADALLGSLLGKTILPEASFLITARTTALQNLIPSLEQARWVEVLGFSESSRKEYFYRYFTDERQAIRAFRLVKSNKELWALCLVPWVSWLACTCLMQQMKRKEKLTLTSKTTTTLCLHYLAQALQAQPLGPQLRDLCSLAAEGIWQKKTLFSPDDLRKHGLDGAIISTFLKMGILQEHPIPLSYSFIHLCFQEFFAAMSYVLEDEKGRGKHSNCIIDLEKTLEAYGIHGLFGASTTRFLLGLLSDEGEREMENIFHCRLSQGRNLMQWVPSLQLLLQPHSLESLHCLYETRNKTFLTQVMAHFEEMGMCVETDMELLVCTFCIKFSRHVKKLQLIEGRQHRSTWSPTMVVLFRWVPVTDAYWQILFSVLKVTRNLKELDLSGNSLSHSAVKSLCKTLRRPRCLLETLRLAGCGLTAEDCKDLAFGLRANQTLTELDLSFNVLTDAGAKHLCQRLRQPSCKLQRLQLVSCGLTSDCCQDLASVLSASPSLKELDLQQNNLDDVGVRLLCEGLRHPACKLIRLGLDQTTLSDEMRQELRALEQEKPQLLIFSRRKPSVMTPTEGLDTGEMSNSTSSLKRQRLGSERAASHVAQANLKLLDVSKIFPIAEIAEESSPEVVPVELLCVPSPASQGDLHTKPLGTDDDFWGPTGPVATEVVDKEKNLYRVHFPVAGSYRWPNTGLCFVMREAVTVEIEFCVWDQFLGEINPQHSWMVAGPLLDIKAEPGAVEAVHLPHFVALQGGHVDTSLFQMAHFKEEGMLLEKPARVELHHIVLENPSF
Sequence of NACHT, LRR and PYD domains-containing protein 1 (Q9C000 1213-1473 limits assumed): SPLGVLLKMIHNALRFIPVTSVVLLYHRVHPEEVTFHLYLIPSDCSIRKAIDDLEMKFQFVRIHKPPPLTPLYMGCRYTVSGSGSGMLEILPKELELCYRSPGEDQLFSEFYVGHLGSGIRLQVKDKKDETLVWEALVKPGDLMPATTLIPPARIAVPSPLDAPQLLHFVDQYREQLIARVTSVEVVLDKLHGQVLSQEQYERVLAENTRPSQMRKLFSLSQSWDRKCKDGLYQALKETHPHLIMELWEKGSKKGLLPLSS
Sequence of Melanin-concentrating hormone receptor 1 (Q99705 whole entry): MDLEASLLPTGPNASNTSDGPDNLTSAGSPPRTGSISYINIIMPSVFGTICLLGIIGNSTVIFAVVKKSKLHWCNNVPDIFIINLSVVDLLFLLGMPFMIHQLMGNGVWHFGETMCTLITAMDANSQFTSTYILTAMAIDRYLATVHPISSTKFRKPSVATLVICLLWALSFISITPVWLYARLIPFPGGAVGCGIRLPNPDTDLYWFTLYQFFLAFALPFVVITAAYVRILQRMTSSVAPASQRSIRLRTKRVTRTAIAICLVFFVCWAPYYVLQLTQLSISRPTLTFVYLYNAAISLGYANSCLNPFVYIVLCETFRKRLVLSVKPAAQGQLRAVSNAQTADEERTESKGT
Sequence of Protein S100-A4 (P26447 whole entry): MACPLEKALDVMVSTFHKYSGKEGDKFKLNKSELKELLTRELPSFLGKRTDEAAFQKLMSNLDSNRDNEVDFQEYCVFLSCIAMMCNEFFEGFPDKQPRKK
Sequence of Intestinal-type alkaline phosphatase (Mus musculus, UniProt P24822) (P24822 whole entry): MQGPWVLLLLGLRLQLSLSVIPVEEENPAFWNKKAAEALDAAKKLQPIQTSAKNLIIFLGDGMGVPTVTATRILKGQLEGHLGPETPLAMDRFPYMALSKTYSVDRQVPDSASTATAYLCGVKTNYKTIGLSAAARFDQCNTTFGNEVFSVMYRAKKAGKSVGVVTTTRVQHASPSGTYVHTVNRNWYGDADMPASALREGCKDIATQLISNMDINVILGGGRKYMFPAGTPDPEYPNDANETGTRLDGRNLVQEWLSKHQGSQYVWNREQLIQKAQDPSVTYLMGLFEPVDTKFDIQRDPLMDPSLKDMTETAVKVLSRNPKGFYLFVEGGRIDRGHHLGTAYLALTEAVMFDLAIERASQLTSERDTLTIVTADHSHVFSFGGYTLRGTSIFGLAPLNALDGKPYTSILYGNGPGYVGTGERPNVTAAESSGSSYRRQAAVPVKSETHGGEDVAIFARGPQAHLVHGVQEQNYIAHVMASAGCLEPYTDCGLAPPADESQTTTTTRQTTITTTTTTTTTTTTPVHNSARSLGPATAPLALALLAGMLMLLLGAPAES
Sequence of Aryl hydrocarbon receptor (P35869 whole entry): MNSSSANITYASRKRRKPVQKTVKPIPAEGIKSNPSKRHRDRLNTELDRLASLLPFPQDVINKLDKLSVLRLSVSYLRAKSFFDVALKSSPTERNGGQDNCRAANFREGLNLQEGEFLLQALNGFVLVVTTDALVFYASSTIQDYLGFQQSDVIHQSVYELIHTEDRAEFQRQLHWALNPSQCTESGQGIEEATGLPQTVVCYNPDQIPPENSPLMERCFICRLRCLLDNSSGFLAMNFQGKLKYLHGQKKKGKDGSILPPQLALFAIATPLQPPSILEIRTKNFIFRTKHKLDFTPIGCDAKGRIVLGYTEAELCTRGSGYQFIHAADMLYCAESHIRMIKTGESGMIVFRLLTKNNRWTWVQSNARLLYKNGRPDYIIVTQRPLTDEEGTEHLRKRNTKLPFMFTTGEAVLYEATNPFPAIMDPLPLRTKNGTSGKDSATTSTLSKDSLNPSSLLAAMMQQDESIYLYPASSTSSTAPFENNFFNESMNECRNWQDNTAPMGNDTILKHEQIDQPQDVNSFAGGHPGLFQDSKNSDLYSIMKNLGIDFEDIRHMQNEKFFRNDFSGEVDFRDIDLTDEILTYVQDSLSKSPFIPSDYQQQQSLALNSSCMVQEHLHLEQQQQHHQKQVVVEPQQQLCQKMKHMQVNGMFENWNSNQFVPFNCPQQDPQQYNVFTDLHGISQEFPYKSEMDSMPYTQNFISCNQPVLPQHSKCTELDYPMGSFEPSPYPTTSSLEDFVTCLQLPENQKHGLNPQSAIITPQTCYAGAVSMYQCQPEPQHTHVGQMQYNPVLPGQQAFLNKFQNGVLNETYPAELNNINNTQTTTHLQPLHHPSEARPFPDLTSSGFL
Sequence of Paired box protein Pax-8 (Q06710 whole entry): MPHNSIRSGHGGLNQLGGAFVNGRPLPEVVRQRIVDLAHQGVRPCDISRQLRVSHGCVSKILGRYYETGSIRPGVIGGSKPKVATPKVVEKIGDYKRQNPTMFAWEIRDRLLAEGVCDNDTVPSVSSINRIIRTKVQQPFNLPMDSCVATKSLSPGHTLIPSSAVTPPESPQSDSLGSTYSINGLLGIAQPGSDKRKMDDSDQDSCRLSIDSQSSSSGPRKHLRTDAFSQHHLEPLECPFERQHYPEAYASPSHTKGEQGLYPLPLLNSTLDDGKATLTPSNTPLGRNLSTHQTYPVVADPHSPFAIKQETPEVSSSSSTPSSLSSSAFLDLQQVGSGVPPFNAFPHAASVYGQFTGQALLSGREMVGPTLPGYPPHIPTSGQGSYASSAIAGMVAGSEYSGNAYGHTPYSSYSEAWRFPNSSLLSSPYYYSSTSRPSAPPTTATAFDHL

## Cc1ccc(-n2ncc(Cl)c(Oc3ccc(C(F)(F)F)cc3)c2=O)cc1
[1]
  IC50: 5.5 µM (active)
[2]
  IC50: 2.2 µM (active)

## Cc1cc2ccccn2c1C(C[N+](=O)[O-])c1c(F)cccc1Cl (stereo not drawn)
[3]
  EC50: > 160 µM (inactive)
[4]
  EC50: 0.421 µM (active)
[5]
  EC50: 4.47 µM (active)
Saccharomyces cerevisiae
  IC50: 6.44 µM (active)
[6]
  IC50: 7.92 µM (active)
[7]
  EC50: 45.4 µM (active)

## COc1cccc2c1C(=O)c1c(O)c3c(c(O)c1C2=O)C[C@@](O)(C(C)=O)C[C@@H]3O[C@H]1C[C@H](N)[C@H](O)[C@H](C)O1 [DAUNORUBICIN HYDROCHLORIDE]
14-3-3 protein gamma
  IC50: < 0.781 µM (active)
Insulin-degrading enzyme [8]
  EC50: > 54.7 µM (inactive)
Protein S100-A4
  AC50: 0.235 µM (active)
ORF 73
  AC50: 2.36 µM (active)
Paired box protein Pax-8
  AC50: 1.55 µM (active)
Insulin-degrading enzyme [9]
  EC50: > 54.7 µM (inactive)
fMet-Leu-Phe receptor
  Ki: > 66.7 µM (inactive)
HEK293 [10]
  EC50: > 54.7 µM (inactive)
HeLa
  AC50: 1.73 µM (active)
[11]
  AC50: 12.6 µM (inconclusive)
HEK293 [12]
  IC50: 17.7 µM (inactive)
Nonstructural protein 1
  IC50: 32.7 µM (active)

## O=C(NC(=S)NNC(=O)c1ccccc1O)c1ccc(F)cc1
[13]
  EC50: 3.21 µM (active)
Streptococcus
  EC50: 7.74 µM (active)
[14]
  EC50: 12.4 µM (active)
[15]
  EC50: > 100 µM (inactive)
[16]
  EC50: 8.25 µM (active)
[17]
  IC50: 7.94 µM (active)
Nonstructural protein 1
  IC50: 12.2 µM (active)
[18]
  EC50: 12.2 µM (active)
